Results published in patent US6908733B2, “Diagnosis and treatment of human kidney diseases” (Shiva Biomedical, LLC, priority 1999, dated 2005).
Several values for one entry are separate records, joined by “and”; a condition that tells them apart may be missing. Identical values can stand only once. Entries after “also recorded” stand apart in the source; their conditions may differ.

Assays:
[1] = tested on: patients with kidney disease; experiment: Serum creatinine in patients with kidney disease before and after treatment with an iron chelator; type: in vivo, human
Description: Creatinine clearance was calculated by the standard formula Cr=Ucr V/PCr where Cr=clearance of creatinine (ml/min); Ucr=urine creatinine (mg/dl), V=volume of urine, and PCr=plasma creatinine (mg/dl).
(§1) The diagnosis of the kidney disease was made by performing a kidney biopsy and included patients with membranoproliferative glomerulonephritis, membranous nephropathy, focal segmental sclerosis, IgA nephropathy, and diabetes as described above.
(§2) Patients with kidney disease who had abnormally high urinary protein were treated with the iron chelator deferiprone (1,2-dimethyl-3-hydroxypyrid-4-one) (L1). Deferiprone was synthesized as previously described capsule (Kontoghiorghes A. J., et al., Inorganica Chimica Acta 136:L11-L12 (1987), the teachings of which are hereby incorporated by reference in it entirety) and formulated into capsules containing 500 mg of deferiprone per capsule.
(§3) Urinary protein and serum creatinine was measured as described above before the administration of deferiprone. Patients were treated by oral ingestion of deferiprone in a range between about 30 mg and about 75 mg deferiprone per kilogram body weight per day 3 times a day. Urinary protein and serum creatinine was obtained 2-6 months after the administration of the iron chelator. […] Total urinary protein and serum creatinine measured before (e.g., pretreatment) and after the administration of deferiprone were compared using a paired t-test and p-value of <0.05 was considered significant.

[2] = tested on: patients with kidney disease; experiment: 24-hr urinary protein in patients with kidney disease before and after treatment with an iron chelator; type: in vivo, human
Description: Kidney disease was detected in patients by the presence of an abnormal amount of protein in the urine and/or an abnormal renal function. An abnormal amount of protein in urine is an amount of total protein greater than about 0.15 g/24 h measured by an adaptation of pyrogallol red-molydate method described by Fujita, Y., et al., Bunseki Kgaku 32:379-386 (1983), the teachings of which are hereby incorporated by reference in their entirety. Many patients, as part of their routine work up, had received kidney biopsies providing diagnosis of the nature of the kidney disease.
as §1, §2, §3

[3] = patients with kidney disease, paired t-test, p<0.05 significant
[4] = individual patients, before vs after 2-6 months oral deferiprone about 30-75 mg/kg per day
[5] = mean of N=14 patients, p < 0.001

For `Cc1c(O)c(=O)ccn1C` [deferiprone, 1,2-dimethyl-3-hydroxypyrid-4-one], the “effect on serum creatinine” value [1, 3] was “significantly decreased; also recorded: decrease”, the “Creatinine After” value ([1]; serum, individual patients, 2-6 months after oral deferiprone about 30-75 mg/kg per day) was 0.9 mg/dl (3×) and 1.3 mg/dl and 0.6 mg/dl and 0.5 mg/dl (2×) and 1.4 mg/dl and 0.7 mg/dl and 1.5 mg/dl and 0.8 mg/dl and the “Creatinine After, Mean” value ([1]; serum, mean of N=11 patients, before 1.10) was 0.90 mg/dL. The “24-Hr Urinary Protein Reduction %” value [2, 4] was 49% and 83% and 38% and 25% and 62% and 99% and 34% and 44% and 80% and 15% and 9% and 2% and 54% and 78%, the “24-Hr Urinary Protein Reduction Grams” value [2, 4] was 1.9 Grams and 1 Grams and 2.5 Grams and 0.7 Grams (2×) and 2.6 Grams and 5.95 Grams and 2 Grams and 2.1 Grams and 0.43 Grams and 0.5 Grams and 0.1 Grams and 1.4 Grams and 2.2 Grams and the “24-Hr Urinary Protein After” value ([2]; individual patients, oral deferiprone about 30-75 mg/kg per day, 3 times a day, measured 2-6 months after administration) was 1.5 grams/24 hrs and 0.2 grams/24 hrs and 4 grams/24 hrs and 1.6 grams/24 hrs (2×) and 0.05 grams/24 hrs and 2.8 grams/24 hrs and 2.5 grams/24 hrs and 0.1 grams/24 hrs and 3.8 grams/24 hrs and 4.8 grams/24 hrs and 4.6 grams/24 hrs and 1.2 grams/24 hrs and 0.6 grams/24 hrs. The “24-Hr Urinary Protein After, Mean” value ([2]; mean of N=14 patients, before 3.91, 2-6 months oral deferiprone about 30-75 mg/kg per day, p < 0.001) was 2.13 grams/24 hrs, the “24-Hr Urinary Protein Reduction %, Mean” value [2, 5] was 48% and the “24-Hr Urinary Protein Reduction Grams, Mean” value [2, 5] was 1.70 Grams. The “effect on total urinary protein” value [2, 3] was “significantly decreased; also recorded: decrease”.
